# Results published in patent US7396830B2, “Piperazine amidines as antiviral agents” (priority 2005, dated 2008).
# Tested on: HIV-1
# Test: Single-round infectious HIV-1 luciferase reporter virus infection of HeLa CD4 cells
# Format: cell-based
# Settings: Human immunodeficiency virus 1, HeLa, 72 h, read-out: EC50 Group from Table 1
# Experimental: • Virus production—Human embryonic Kidney cell line, 293T, was propagated in Dulbecco's Modified Eagle Medium (Invitrogen, Carlsbad, Calif.) containing 10% fetal Bovine serum (FBS, Sigma, St. Louis, Mo.). • Virus infection—Human epithelial cell line, HeLa, expressing the HIV-1 receptor CD4 was propagated in Dulbecco's Modified Eagle Medium (Invitrogen, Carlsbad, Calif.) containing 10% fetal Bovine serum (FBS, Sigma, St. Louis , Mo.) and supplemented with 0.2 mg/mL Geneticin (Invitrogen, Carlsbad, Calif.). Virus-Single-round infectious reporter virus was produced by co-transfecting human embryonic Kidney 293 cells with an HIV-1 envelope DNA expression vector and a proviral cDNA containing an envelope deletion mutation and the luciferase reporter gene inserted in place of HIV-1 nef sequences (Chen et al, Ref. 41). Transfections were performed using lipofectAMINE PLUS reagent as described by the manufacturer (Invitrogen, Carlsbad, Calif.). Experiment • 1. HeLa CD4 cells were plated in 96 well plates at a cell density of 1×10^4 cells per well in 100 μl Dulbecco's Modified Eagle Medium containing 10% fetal Bovine serum and incubated overnight. • 2. Compound was added in a 2 μl dimethylsulfoxide solution, so that the final assay concentration would be ≦10 μM. • 3. 100 μl of single-round infectious reporter virus in Dulbecco's Modified Eagle Medium was then added to the plated cells and compound at an approximate multiplicity of infection (MOI) of 0.01, resulting in a final volume of 200 μl per well. • 4. Virally-infected cells were incubated at 37 degrees Celsius, in a CO2 incubator, and harvested 72 h after infection. • 5. Viral infection was monitored by measuring luciferase expression from viral DNA in the infected cells using a luciferase reporter gene assay kit, as described by the manufacturer (Roche Molecular Biochemicals, Indianapolis, Ind.). Infected cell supernatants were removed and 50 μl of lysis buffer was added per well. After 15 minutes, 50 μl of freshly-reconstituted luciferase assay reagent was added per well. Luciferase activity was then quantified by measuring luminescence using a Wallac microbeta scintillation counter. • 6. The percent inhibition for each compound was calculated by quantifying the level of luciferase expression in cells infected in the presence of each compound as a percentage of that observed for cells infected in the absence of compound and subtracting such a determined value from 100. • 7. An EC50 provides a method for comparing the antiviral potency of the compounds of this disclosure. The effective concentration for fifty percent inhibition (EC50) was calculated with the Microsoft Excel Xlfit curve fitting software. For each compound, curves were generated from percent inhibition calculated at 10 different concentrations by using a four paramenter logistic model (model 205). Table 1 is the key for the data in Table 2. Results
row,Structure (SMILES),EC50 [nM]
1,CC/N=C(\c1ccccc1)N1CCN(C(=O)C(=O)c2c[nH]c3c(-n4ccnn4)ncc(F)c23)CC1 [AM-59],< 500
2,"O=C(C(=O)N1CCN(/C(=N/c2ccccc2)c2ccccc2)CC1)c1c[nH]c2cccc(F)c12 [AM-08, 1-(4-fluoro-1H-indol-3-yl)-2-(4-(phenyl(phenylimino)methyl)piperazin-1-yl)ethane-1,2-dione]",< 500
3,O=C(C(=O)N1CCN(/C(=N/C2CCCC2)c2ccccc2)CC1)c1c[nH]c2c(-n3ccnn3)ncc(F)c12 [AM-61],< 500
4,"C[C@@H]1CN(/C(=N/C#N)c2ccccc2)CCN1C(=O)C(=O)c1c[nH]c2c(-n3ccnn3)ncc(F)c12 [AM-25, (((R)-4-(2-(4-fluoro-7-(1H-1,2,3-triazol-1-yl)-1H-pyrrolo[2,3-c]pyridin-3-yl)-2-oxoacetyl)-3-methylpiperazin-1-yl)(phenyl)methylene)cyanamide]",< 500
5,N#C/N=C(\c1ccccn1)N1CCN(C(=O)C(=O)c2c[nH]c3c(-n4ccnn4)ncc(F)c23)CC1 [AM-81],< 500
6,CS(=O)(=O)/N=C(\c1ccccc1)N1CCN(C(=O)C(=O)c2c[nH]c3c(-n4ccnn4)ncc(F)c23)CC1 [AM-68],< 500
7,COc1cnc(-c2cnccn2)c2[nH]cc(C(=O)C(=O)N3CCN(C(=N)c4ccccc4)C[C@H]3C)c12 [AM-71],< 500
8,C[C@@H]1CN(C(=N)c2ccccc2)CCN1C(=O)C(=O)c1c[nH]c2c(-n3ccnn3)ncc(F)c12 [AM-33],< 500
9,O=C(C(=O)N1CCN(/C(=N/CCN2CCOCC2)c2ccccc2)CC1)c1c[nH]c2cccc(F)c12 [AM-23],> 500
10,C[C@H]1CN(/C(=N/C#N)c2ccccc2)CCN1C(=O)C(=O)c1c[nH]c2c(-c3cc4ccccc4s3)ccc(F)c12 [AM-80],< 500
11,O=C(C(=O)N1CCN(/C(=N/C2CCCCC2)c2ccccc2)CC1)c1c[nH]c2c(-n3ccnn3)ncc(F)c12 [AM-63],< 500
12,CCC/N=C(\c1ccccc1)N1CCN(C(=O)C(=O)c2c[nH]c3ccccc23)CC1 [AM-13],> 500
13,C/N=C(\c1ccccc1)N1CCN(C(=O)C(=O)c2c[nH]c3cccc(F)c23)CC1 [AM-18],> 500
14,C/N=C(\c1ccccc1)N1CCN(C(=O)C(=O)c2c[nH]c3c(-n4cnc(C)n4)ncc(OC)c23)CC1 [AM-70],< 500
15,N=C(c1ccccc1)N1CCN(C(=O)C(=O)c2c[nH]c3c(-c4nccs4)ccc(F)c23)CC1 [AM-77],< 500
16,COc1cnc(-n2ccc(-c3ccc(C#N)cc3)n2)c2[nH]cc(C(=O)C(=O)N3CCN(/C(=N/C#N)c4ccccc4)CC3)c12 [AM-11],< 500
17,COc1ncc(OC)c2c(C(=O)C(=O)N3CCN(/C(=N/C#N)c4ccccc4)CC3)c[nH]c12 [AM-03],< 500
18,N#C/N=C(\c1ccccc1)N1CCN(C(=O)C(=O)c2c[nH]c3cc(F)cc(F)c23)CC1 [AM-28],< 500
19,C[C@H]1CN(/C(=N/C#N)c2ccccc2)CCN1C(=O)C(=O)c1c[nH]c2c(-n3ccnn3)ncc(F)c12 [AM-65],< 500

row,Structure (SMILES),EC50 [nM]
1,O=C(C(=O)N1CCN(/C(=N/CCN2CCOCC2)c2ccccc2)CC1)c1c[nH]c2c(Br)ccc(F)c12 [AM-06],< 500
2,CS(=O)(=O)/N=C(\c1ccccc1)N1CCN(C(=O)C(=O)c2c[nH]c3cccc(F)c23)CC1 [AM-09],< 500
3,"N#C/N=C(\c1ccccc1)N1CCN(C(=O)C(=O)c2c[nH]c3c(-n4ccnn4)ncc(F)c23)CC1 [AM-10, ((4-(2-(4-fluoro-7-(1H-1,2,3-triazol-1-yl)-1H-pyrrolo[2,3-c]pyridin-3-yl)-2-oxoacetyl)piperazin-1-yl)(phenyl)methylene)cyanamide]",< 500
4,C[C@H]1CN(/C(=N/C#N)c2ccccc2)CCN1C(=O)C(=O)c1c[nH]c2c(-c3nccs3)ccc(F)c12 [AM-78],< 500
5,C[C@H]1CN(/C(=N/C#N)c2ccccc2)CCN1C(=O)C(=O)c1c[nH]c2c(Br)ccc(F)c12 [AM-76],< 500
6,CC(C)/N=C(\c1ccccc1)N1CCN(C(=O)C(=O)c2c[nH]c3c(-n4ccnn4)ncc(F)c23)CC1 [AM-64],< 500
7,COc1cnc(-n2ccnn2)c2[nH]cc(C(=O)C(=O)N3CCN(C(=N)c4ccccc4)CC3)c12 [AM-34],< 500
8,CCN(CC)CC/N=C(\c1ccccc1)N1CCN(C(=O)C(=O)c2c[nH]c3c(Br)ccc(F)c23)CC1 [AM-05],< 500
9,"N=C(c1ccccc1)N1CCN(C(=O)C(=O)c2c[nH]c3cccc(F)c23)CC1 [AM-01, 1-(4-fluoro-1H-indol-3-yl)-2-(4-(imino(phenyl)methyl)piperazin-1-yl)ethane-1,2-dione]",< 500
10,COc1cnc(-n2cnc(C)n2)c2[nH]cc(C(=O)C(=O)N3CCN(/C(=N/C#N)c4ccccn4)CC3)c12 [AM-82],< 500
11,N#C/N=C(\c1ccccc1)N1CCN(C(=O)C(=O)c2c[nH]c3c(Br)ccc(F)c23)CC1 [AM-17],< 500
12,CCCC/N=C(\c1ccccc1)N1CCN(C(=O)C(=O)c2c[nH]c3c(-n4ccnn4)ncc(F)c23)CC1 [AM-62],< 500
13,O=C(C(=O)N1CCN(/C(=N/c2cccnc2)c2ccccc2)CC1)c1c[nH]c2cccc(F)c12 [AM-22],> 500
14,N#C/N=C(\c1ccccc1)N1CCN(C(=O)C(=O)c2c[nH]c3c(F)ccc(F)c23)CC1 [AM-30],< 500
15,CC(C)(C)/N=C(\c1ccccc1)N1CCN(C(=O)C(=O)c2c[nH]c3ccccc23)CC1 [AM-14],> 500
16,CN(C)S(=O)(=O)/N=C(\c1ccccc1)N1CCN(C(=O)C(=O)c2c[nH]c3c(-n4ccnn4)ncc(F)c23)CC1 [AM-67],< 500
17,C/N=C(\c1ccccc1)N1CCN(C(=O)C(=O)c2c[nH]c3c(-n4ccnn4)ncc(F)c23)CC1 [AM-69],< 500
18,C/N=C(\c1ccccc1)N1CCN(C(=O)C(=O)c2c[nH]c3ccccc23)CC1 [AM-12],> 500
19,O=C(C(=O)N1CCN(/C(=N/C2CC2)c2ccccc2)CC1)c1c[nH]c2cccc(F)c12 [AM-21],> 500

row,Structure (SMILES),EC50 [nM]
1,O=C(C(=O)N1CCN(/C(=N/C2CCC2)c2ccccc2)CC1)c1c[nH]c2c(-n3ccnn3)ncc(F)c12 [AM-56],< 500
2,CCc1ncn(-c2ncc(OC)c3c(C(=O)C(=O)N4CCN(/C(=N/C#N)c5ccccc5)CC4)c[nH]c23)n1 [AM-53],< 500
3,O=C(C(=O)N1CCN(/C(=N/CCOCCO)c2ccccc2)CC1)c1c[nH]c2cccc(F)c12 [AM-19],> 500
4,CN(C)S(=O)(=O)/N=C(\c1ccccc1)N1CCN(C(=O)C(=O)c2c[nH]c3cccc(F)c23)CC1 [AM-26],> 500
5,CC(C)NC(=O)/N=C(\c1ccccc1)N1CCN(C(=O)C(=O)c2c[nH]c3cccc(F)c23)CC1 [AM-36],> 500
6,COc1cnc(-c2cnccn2)c2[nH]cc(C(=O)C(=O)N3CCN(C(=N)c4ccccc4)C[C@@H]3C)c12 [AM-72],< 500
7,CC[C@@H]1CN(/C(=N/C#N)c2ccccc2)CCN1C(=O)C(=O)c1c[nH]c2c(-n3ccnn3)ncc(F)c12 [AM-66],< 500
8,CC1(C)OB(c2ccc(NC(=O)/N=C(\c3ccccc3)N3CCN(C(=O)C(=O)c4c[nH]c5cccc(F)c45)CC3)cc2)OC1(C)C [AM-50],> 500
9,CN(C)CCC/N=C(\c1ccccc1)N1CCN(C(=O)C(=O)c2c[nH]c3c(-n4ccnn4)ncc(F)c23)CC1 [AM-58],< 500
10,CN(C)CCC/N=C(\c1ccccc1)N1CCN(C(=O)C(=O)c2c[nH]c3cccc(F)c23)CC1 [AM-20],> 500
11,COc1cnc(-n2cnc(C)n2)c2[nH]cc(C(=O)C(=O)N3CCN(C(=N)c4ccccn4)CC3)c12 [AM-55],< 500
12,COc1cnc(-n2ccnn2)c2[nH]cc(C(=O)C(=O)N3CCN(/C(=N/C#N)c4ccccc4)CC3)c12 [AM-24],< 500
13,COc1cnc(-n2cnc(C)n2)c2[nH]cc(C(=O)C(=O)N3CCN(/C(=N/C#N)c4ccccc4)CC3)c12 [AM-16],< 500
14,C[C@H]1CN(/C(=N/C#N)c2ccccc2)CCN1C(=O)C(=O)c1c[nH]c2c(-c3ccccn3)ccc(F)c12 [AM-79],< 500
15,CN(C)S(=O)(=O)/N=C(\c1ccccc1)N1CCN(C(=O)C(=O)c2c[nH]c3ccccc23)CC1 [AM-04],< 500
16,N#C/N=C(\c1ccccc1)N1CCN(C(=O)C(=O)c2c[nH]c3cccc(F)c23)CC1 [AM-02],< 500
17,O=C(C(=O)N1CCN(/C(=N/CCOCCO)c2ccccc2)CC1)c1c[nH]c2c(-n3ccnn3)ncc(F)c12 [AM-60],< 500
18,N=C(c1ccccn1)N1CCN(C(=O)C(=O)c2c[nH]c3c(-n4ccnn4)ncc(F)c23)CC1 [AM-54],< 500
19,N=C(c1ccccc1)N1CCN(C(=O)C(=O)c2c[nH]c3c(Br)ccc(F)c23)CC1 [AM-73],< 500
